The text below walks through data of patent US20250243194A1, “ANTAGONIST OF ADENOSINE RECEPTORS” (AdoRx Therapeutics Limited, priority 2022, published 2025).

The Ki is the equilibrium dissociation constant of an inhibitor or competing ligand from its target. For orientation: IC50 means the concentration needed to halve the response being measured.

Structures are written as SMILES. Like-named read-outs stand apart in the source and are kept apart here.

Test [1] addresses human Adenosine A1 receptor (Homo sapiens (Human), UniProt P30542). Description: Adenosine receptor TR-FRET binding assay (A1). An outline of the steps:
(§1)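 Compounds incubated 2 h at room temperature with membranes from CHO cells expressing terbium-labelled human receptors, competing with the fluorescent antagonist CA200645 (30 nM for A2b; 100 nM for A1, A2a and A3). Read by TR-FRET (665/620 nm); non-specific binding defined with 10 μM XAC. Ki derived from IC50 via Cheng-Prusoff.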
(In general: Time-resolved FRET reads energy transfer from a long-lived donor to a nearby acceptor.)

Test [2] concerns the target human Adenosine A2a receptor (Homo sapiens (Human), UniProt P29274). The test is described as follows: Adenosine receptor TR-FRET binding assay (A2a). An outline of the steps:
as §1

The target in test [3] is human Adenosine A2b receptor (Homo sapiens (Human), UniProt P29275). The test is described as follows: Adenosine receptor TR-FRET binding assay (A2b). The following applies: inhibition of binding of 30 nM CA200645; CHO cell membranes; Ki from IC50 by Cheng and Prusoff. An outline of the steps:
as §1

In test [4] the test system is human PBMCs. Description: CD3/CD28 stimulated IL-2 release NECA reversal assay in human PBMCs. The format is cell-based. The following applies: PBMC, reversal of 1 uM NECA, 24 hours. The method, then:
Blood is drawn from healthy volunteers using sodium citrate as the anticoagulant (0.3% final concentration). After centrifugation of the blood over Histopaque-1077, PBMCs are collected from the Histopaque/plasma interface and washed twice in PBS (300 g for 10 mins at room temp). Cells are plated at 50,000 cells/well in 150 μl RPMI/10% FCS in 96-well cell culture plates that have been precoated with 1 μg/ml CD3 antibody. 50 μl diluted compound mix is added to the cells, to obtain final concentrations of 1 μg/ml CD28 antibody, 1 uM NECA and 0.003-10 μM adenosine receptor antagonist. Assay plates are incubated for 24 hours at 37° C. in a humidified incubator. Culture supernatant is tested for IL-2 levels using the human IL-2 Tissue Culture Kit (Meso Scale Discovery).

The test system of test [5] is CD8+ T cells in human whole blood. The test is described as follows: Measurement of pCREB in CD8+ T cells in human whole blood. The test is classed as cell-based. The following applies: T-cell, 3 μM NECA, rolipram, FACS. The method, then:
Heparinised human whole blood was pre-incubated at 37° C. with serial dilutions of A2a antagonists for 20 min. and the phosphodiesterase inhibitor rolipram to amplify the pCREB response. The adenosine receptor agonist NECA is then added at a final concentration of 3 μM and following a 60 min incubation the blood is fixed and red blood cells lysed. White blood cells are isolated, permeabilized and stained with directly conjugated fluorescent antibodies to phospho-CREB (Alexa Fluor 488) and CD8 (Alexa Fluor 647) and the level of phospho-CREB in CD8+ T cells is measured by FACS using a BD Accuri C6 Flow Cytometer.

The subject of test [6] is immature monocyte-derived dendritic cells (MoDC). Description: MoDC pCREB assay. The following applies: Homo sapiens, Dendritic cell, CD209+/CD86-low cells, 1 μM NECA, 20 μM rolipram, largely specific to A2B. The format is cell-based. As for the experimental part:
Monocytes are isolated from human whole blood using CD14 microbeads (Miltenyi Biotec 130-050-201) and differentiated to immature monocyte-derived dendritic cells (MoDC) by culture for 5 days in Mo-DC Differentiation Medium (Miltenyi Biotec 130-094-812). MoDCs are seeded into fresh medium into U bottomed 96 well culture plates and pre-incubated at 37° C. with serial dilutions of A2A/B antagonists for 15 min. At the same time the cells are co-incubated with the phosphodiesterase inhibitor rolipram (final concentration of 20 μM) to amplify the subsequent pCREB response. Adenosine receptor agonist NECA is then added at 1 μM final concentration, leading to an increase in CREB phosphorylation. Following a 45 min incubation at 37° C., the cells are fixed, permeabilized and stained with directly conjugated fluorescent antibodies to phospho-CREB (Alexa Fluor 488), CD209 (PerCP-Cy5.5) and CD86 (APC). Samples are analysed by FACS to measure fluorescence in corresponding channels, and also forward and Side scatter. The population of CD209+/CD86-low cells corresponding to immature dendritic cells is gated for analysis of pCREB levels.
Approximately 5% of the analysed cells are positive for detection of pCREB in the absence of agonist stimulation, representing the background signalling of all pathways upstream of CREB. Following NECA stimulation this is increased to ˜80% pCREB+ve, and this increase is essentially fully reversible by A2B or dual A2A/B antagonists.
IC50 is represented as the point of inflection of a sigmoidal curve

Test [7] concerns the target human Adenosine A3 receptor (Homo sapiens (Human), UniProt P0DMS8). Description: Adenosine receptor TR-FRET binding assay (A3). The following applies: inhibition of binding of 100 nM CA200645; CHO cell membranes; Ki from IC50 by Cheng and Prusoff. As for the experimental part:
All FRET binding experiments were conducted at room temperature in white 384-well plates, in assay binding buffer containing 1× LabMed (Cisbio, France), 100 μg/mL saponin, 1% DMSO and 0.02% pluronic acid. Binding of the fluorescently labelled Adenosine receptor antagonist XAC (CA200645, FRET acceptor) to terbium-labelled A1, A2a, A2b and A3 adenosine receptors (FRET donors) was detected by time-resolved FRET due to the close proximity of the donor and acceptor in a binding event. To investigate the ability of unlabelled test compounds to bind to Adenosine A1, A2a, A2b and A3 receptors, dose response curves were constructed that determined the ability of a range of concentrations to inhibit the binding of 30 nM CA200645 to the A2b receptor and 100 nM CA200645 to the A1, A2a, and A3 receptor.
Serial dilution (1:3 dilutions) of test compounds in neat DMSO and transfer of a 400 nL sample of test compound into the assay plate was carried out using the Mosquito (TTP Labtech, UK). The compound samples were incubated for 2 hours at room temperature with a fixed concentration of CA200645 defined for each receptor (see above) and CHO cell membranes containing the human Adenosine A1 (0.5 μg/well), A2a (0.3 μg/well), A2b (1 μg/well) or A3 (1 μg/well) receptor in 40 μL of assay buffer. Total and non-specific binding of CA200645 was determined in the absence and presence of 10 μM XAC, respectively. Following 2 hours incubation, the level of CA200645 binding was detected on a Pherastar FSX (BMG Labtech, Germany) using standard TR-FRET settings. The terbium donor was excited with three laser flashes at a wavelength of 337 nm, and donor and acceptor emission was detected at 620 nm and 665 nm wavelengths, respectively. FRET ratios were obtained by multiplying the acceptor/donor ratio value by 10,000. Specific binding was determined by subtracting the non-specific binding FRET ratio from the total binding FRET ratio. Compound IC50 curves were analysed using GraphPad Prism 7.0 (GraphPad, USA) and Ki affinity values were determined from the obtained IC50 values using the method of Cheng and Prusoff.

Setting [8] is: inhibition of binding of 100 nM CA200645, CHO cell membranes, Ki from IC50 by Cheng and Prusoff.

human Adenosine A2b receptor, sequence (P29275 whole entry): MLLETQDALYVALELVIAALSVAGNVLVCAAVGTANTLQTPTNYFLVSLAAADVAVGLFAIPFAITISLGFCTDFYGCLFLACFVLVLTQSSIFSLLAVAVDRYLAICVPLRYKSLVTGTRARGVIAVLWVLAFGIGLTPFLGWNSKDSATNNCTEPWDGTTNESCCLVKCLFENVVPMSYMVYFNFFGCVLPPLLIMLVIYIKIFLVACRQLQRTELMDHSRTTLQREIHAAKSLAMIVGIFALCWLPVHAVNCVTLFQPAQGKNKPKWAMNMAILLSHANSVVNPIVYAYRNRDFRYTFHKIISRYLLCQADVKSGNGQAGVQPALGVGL
human Adenosine A1 receptor, sequence (P30542 whole entry): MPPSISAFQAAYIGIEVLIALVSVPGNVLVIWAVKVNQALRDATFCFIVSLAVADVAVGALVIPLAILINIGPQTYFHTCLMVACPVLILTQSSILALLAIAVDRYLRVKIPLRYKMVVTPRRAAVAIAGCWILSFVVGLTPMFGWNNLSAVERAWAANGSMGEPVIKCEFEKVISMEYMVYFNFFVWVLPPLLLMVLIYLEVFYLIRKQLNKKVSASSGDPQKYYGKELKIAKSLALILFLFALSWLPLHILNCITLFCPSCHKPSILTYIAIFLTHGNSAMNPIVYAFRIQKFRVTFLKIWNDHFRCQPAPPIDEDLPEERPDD
human Adenosine A2a receptor, sequence (P29274 whole entry): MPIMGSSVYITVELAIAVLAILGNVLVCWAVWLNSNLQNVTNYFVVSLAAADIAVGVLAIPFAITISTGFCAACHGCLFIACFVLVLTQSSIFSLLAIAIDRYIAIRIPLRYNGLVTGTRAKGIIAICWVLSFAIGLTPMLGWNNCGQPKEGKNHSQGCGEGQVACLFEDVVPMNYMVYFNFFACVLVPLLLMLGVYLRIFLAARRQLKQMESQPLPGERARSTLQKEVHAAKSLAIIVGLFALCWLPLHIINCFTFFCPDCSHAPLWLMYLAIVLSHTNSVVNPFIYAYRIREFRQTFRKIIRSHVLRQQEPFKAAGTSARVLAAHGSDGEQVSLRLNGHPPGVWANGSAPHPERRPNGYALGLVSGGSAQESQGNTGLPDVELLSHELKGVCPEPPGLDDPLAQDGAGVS
human Adenosine A3 receptor, sequence (P0DMS8 whole entry): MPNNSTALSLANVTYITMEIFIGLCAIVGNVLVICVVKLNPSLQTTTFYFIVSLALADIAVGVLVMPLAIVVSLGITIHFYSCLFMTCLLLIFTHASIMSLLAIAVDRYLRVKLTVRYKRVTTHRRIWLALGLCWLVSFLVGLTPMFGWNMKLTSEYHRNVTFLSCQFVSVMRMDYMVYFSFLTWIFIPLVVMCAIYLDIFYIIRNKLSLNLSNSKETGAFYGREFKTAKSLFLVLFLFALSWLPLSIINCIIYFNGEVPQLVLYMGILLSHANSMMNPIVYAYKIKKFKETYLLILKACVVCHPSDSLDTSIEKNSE

In the case of `Cc1ncnc2ccc(-c3sc(NC(=O)N4CCNCC4CC4CC4)nc3-c3cccc(C#N)c3)cc12` (stereo not shown) [Example 2.1, N-[4-(3-Cyanophenyl)-5-(4-methylquinazolin-6-yl)thiazol-2-yl]-2-(cyclopropylmethyl)piperazine-1-carboxamide], the Ki in test [1] (setting [8]) was 12 nM; in test [2] (setting [8]) it was 0.25 nM; in test [3] it was 2.5 nM. Also, the IC50 in test [4] was determined as 1.8 nM; in test [5] it was 50 nM; in test [6], 3 nM.

With `Cc1ncnc2ccc(-c3sc(NC(=O)N4CC5(CNCCO5)C4)nc3-c3cccc(C#N)c3)cc12` [Example 4.1, N-[4-(3-Cyanophenyl)-5-(4-methylquinazolin-6-yl)thiazol-2-yl]-5-oxa-2,8-diazaspiro[3.5]nonane-2-carboxamide], the values for the Ki in test [1], in test [2] and in test [3] were 42 nM, 0.14 nM and 1.1 nM, respectively. For the same molecule, the results for the IC50 in test [4], in test [5] and in test [6] were 1.8 nM, 8 nM and 2 nM, respectively.

Turning to `Cc1ncnc2ccc(-c3sc(NC(=O)N4CC[C@H](C(C)(C)O)C4)nc3-c3cccc(C#N)c3)cc12` [Example 5, (3S)—N-[4-(3-Cyanophenyl)-5-(4-methylquinazolin-6-yl)thiazol-2-yl]-3-(1-hydroxy-1-methyl-ethyl)pyrrolidine-1-carboxamide], the figures for the Ki in test [2] (setting [8]) and in test [3] were 0.17 nM and 1.7 nM, respectively. Also, the IC50 turned out to be 0.4 nM in test [4], 15 nM in test [5] and 3 nM in test [6].

`Cc1ncnc2ccc(-c3sc(NC(=O)N4CCC(C)(C#N)CC4)nc3-c3cccc(C#N)c3)cc12` [Example 6, 4-Cyano-N-[4-(3-cyanophenyl)-5-(4-methylquinazolin-6-yl)thiazol-2-yl]-4-methyl-piperidine-1-carboxamide]: the Ki in test [1] (setting [8]) was 3 nM; in test [2] (setting [8]) it was 0.07 nM; in test [3], 0.8 nM. Besides, the values for the concentration for half-maximal inhibition (IC50) in test [4], in test [5] and in test [6] were 0.1 nM, 11 nM and 2 nM, respectively.

Take `Cc1ncnc2ccc(-c3sc(NC(=O)N4CC[C@@H](C(C)(C)O)C4)nc3-c3cccc(C#N)c3)cc12` [Example 7, (3R)—N-[4-(3-Cyanophenyl)-5-(4-methylquinazolin-6-yl)thiazol-2-yl]-3-(1-hydroxy-1-methyl-ethyl)pyrrolidine-1-carboxamide]: the values for the Ki in test [2] (setting [8]) and in test [3] were 0.1 nM and 1.4 nM, respectively. Besides, the half-inhibitory concentration (IC50) turned out to be 0.3 nM in test [4], 10 nM in test [5] and 3 nM in test [6].

As to `Cc1ncnc2ccc(-c3sc(NC(=O)N4CC5(CN(C)C5)C4)nc3-c3cccc(C#N)c3)cc12` [Example 7.4, N-[4-(3-Cyanophenyl)-5-(4-methylquinazolin-6-yl)thiazol-2-yl]-6-methyl-2,6-diazaspiro[3.3]heptane-2-carboxamide], the inhibition constant (Ki) in test [1] (setting [8]) came to 345 nM; in test [2] (setting [8]) it was 1.83 nM; in test [3] it was 6.4 nM. The concentration for half-maximal inhibition (IC50) in test [4] is 3 nM; in test [5] it was 60 nM; in test [6] it was 4 nM.

As to `Cc1ncnc2ccc(-c3sc(NC(=O)N4CCC5(CC4)CNC(=O)C5)nc3-c3cccc(C#N)c3)cc12` [Example 7.17, N-[4-(3-Cyanophenyl)-5-(4-methylquinazolin-6-yl)thiazol-2-yl]-3-oxo-2,8-diazaspiro[4.5]decane-8-carboxamide], the results for the Ki in test [1] (setting [8]), in test [2] (setting [8]) and in test [3] were 13 nM, 0.2 nM and 1.9 nM, respectively. For the same molecule, the results for the IC50 in test [4], in test [5] and in test [6] were 1.1 nM, 4 nM and 2 nM, respectively.

Regarding `Cc1ncnc2ccc(-c3sc(NC(=O)N4CCC5(CCC(=O)N5)CC4)nc3-c3cccc(C#N)c3)cc12` [Example 7.23, N-[4-(3-Cyanophenyl)-5-(4-methylquinazolin-6-yl)thiazol-2-yl]-2-oxo-1,8-diazaspiro[4.5]decane-8-carboxamide], the figures for the inhibitory constant (Ki) in test [1] (setting [8]), in test [2] (setting [8]) and in test [3] were 10 nM, 0.13 nM and 1.1 nM, respectively. Also, the IC50 in test [4] was 0.8 nM; in test [5], 30 nM; in test [6] it was 3 nM.

As to `Cc1ncnc2ccc(-c3sc(NC(=O)N4CC5(C4)CC(C)(O)C5)nc3-c3cccc(C#N)c3)cc12` [Example 7.24, N-[4-(3-Cyanophenyl)-5-(4-methylquinazolin-6-yl)thiazol-2-yl]-6-hydroxy-6-methyl-2-azaspiro[3.3]heptane-2-carboxamide], the Ki in test [1] (setting [8]) was found to be 18 nM; in test [2] (setting [8]) it was 0.14 nM; in test [3], 1.3 nM. Also, the concentration for half-maximal inhibition (IC50) in test [4] came to 0.7 nM; in test [5], 12 nM; in test [6], 2 nM.

For the molecule `Cc1ncnc2ccc(-c3sc(NC(=O)N4CCC(C)(C#N)C4)nc3-c3cccc(C#N)c3)cc12` (stereo not shown) [Example 7.25, 3-Cyano-N-[4-(3-cyanophenyl)-5-(4-methylquinazolin-6-yl)thiazol-2-yl]-3-methyl-pyrrolidine-1-carboxamide], the results for the Ki in test [1] (setting [8]), in test [2] (setting [8]) and in test [3] were 3 nM, 0.12 nM and 1.1 nM, respectively. The IC50 in test [4] was 0.3 nM; in test [5] it was 7 nM; in test [6], 2 nM.

As to `N#Cc1cccc(-c2nc(NC(=O)N3CCOCC3)sc2-c2ccn3nccc3c2)c1` [Example 33, N-[4-(3-Cyanophenyl)-5-pyrazolo[1,5-a]pyridin-5-yl-thiazol-2-yl]morpholine-4-carboxamide], the inhibition constant Ki in test [1] (setting [8]) amounted to 0.2 nM; in test [2] (setting [8]), 0.36 nM; in test [3], 0.5 nM; in test [7], 758 nM. Besides, the results for the concentration for half-maximal inhibition (IC50) in test [4] and in test [5] were 6.4 nM and 219 nM, respectively.
